“And” between values parts separate entries of the source, which are not always exact repeats. Equal entries are not always repeated. The source made the active and inactive calls.
Tests used:
[1] = target: E3 ubiquitin-protein ligase Mdm2 (Homo sapiens, UniProt Q00987); assay: enhancers of MDM2-luciferase reporter signal, concentration-effect titration, project on inhibitors of MDM2 ubiquitin ligase, cellular assay, luminescent readout, 384-well plate format (AID 1394); assay type: functional;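 note: MDM2 E3 inhibitors raise luminescence so EC50 is for signal enhancement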
INS1 = assay: beta cell apoptosis inhibitors, cytokine rescue, dose response, luminescence, retest (AID 449756); assay type: functional, cell-based; settings: Rattus norvegicus;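 note: cell death triggered by IL-1 beta plus TNF-alpha plus IFN-gamma mixture; protective hits raise ATP signal compared with cytokine alone wells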
[2] = non-specific cell cytotoxicity, dose response, cytotoxicity control for PAX8 inhibitor project, plate reader, dry powder samples (AID 743021); assay type: functional, cell-based
[3] = NIH-3T3 fibroblast cytotoxicity, dose response, cytotoxicity control, cell-based, fluorescence, Alamar Blue, secondary assay (AID 2327); assay type: functional;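 note: NIH-3T3 mouse fibroblasts cultured with fluconazole at 8 µg/mL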
BJ = assay: cytotoxicity toward Ras-transformed BJeLR fibroblasts, dose response, cell-based, alamar blue fluorescence, cherrypicked samples (AID 2631); assay type: functional; settings: Homo sapiens;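 note: confirmatory dose-response assay in RAS-dependent BJ fibroblasts engineered with TERT, LT and ST, with cytotoxicity read by fluorescence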
Paired box protein Pax-8 = Paired box protein Pax-8 (Homo sapiens, UniProt Q06710); assay: inhibitors of PAX8-driven TPO luciferase reporter, dose response, RMG-I cells, cherry-pick (AID 687027); assay type: functional, cell-based;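 note: luciferase reporter driven by Pax8 target thyroperoxidase promoter measured by SteadyGlo luminescence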
[4] = cytotoxicity in COV434 cells, dose response, cytotoxicity control for PAX8 inhibitor project, cell-based, plate reader, dry powder, SA7 (AID 743145); assay type: functional
[5] = cytotoxicity dependent on PAX8, dose response, cell-based, plate reader, dry powder (AID 743049); assay type: functional
[6] = NIH:OVCAR-3 ovarian cancer cell cytotoxicity, dose response, PAX8 inhibitor project, plate reader, dry powder samples (AID 743044); assay type: functional, cell-based
[7] = cytotoxicity in COV362 ovarian cancer cells, dose response, cytotoxicity control for PAX8 inhibitor project, cell-based, plate reader, dry powder, SA12 (AID 743144); assay type: functional
[8] = IGROV1 ovarian cancer cell cytotoxicity, dose response, PAX8 inhibitor project, plate reader, dry powder samples (AID 743043); assay type: functional, cell-based; settings: IGROV-1
[9] = cytotoxicity in OV-90 ovarian cancer cells, dose response, PAX8 inhibitor project, cell-based, plate reader, dry powder, SA8 (AID 743149); assay type: functional
[10] = cytotoxicity in OVCAR4 cells, dose response, cytotoxicity control for PAX8 inhibitor project, cell-based, plate reader, dry powder, SA11 (AID 743150); assay type: functional; settings: OVCAR-4
[11] = cytotoxicity in OVCAR8 ovarian cancer cells, dose response, PAX8 project, cell-based, plate reader, dry powder samples (AID 743197); assay type: functional; settings: OVCAR-8
[12] = PAX5 activity inhibitors, dose response, selectivity assay for PAX8 inhibitor project, cell-based, plate reader, dry powder samples (AID 743047); assay type: functional;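 note: HEK293 cells carrying a Pax5 driven CD19 promoter luciferase reporter; potency of inhibitors that lower reporter luminescence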
[13] = A375 melanoma cell cytotoxicity, dose response, counter-screen for MITF inhibitor project, CellTiter-Glo luminescence, dry powder, set 7 (AID 624490); assay type: functional, cell-based; settings: A-375
[14] = A375 melanoma cell cytotoxicity, dose response, counter-screen for MITF inhibitor project, CellTiter-Glo luminescence, dry powder, set 2 (AID 624489); assay type: functional, cell-based; settings: A-375;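 note: actives are compounds lowering A375 viability meaning general cytotoxicity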
[15] = MITF Orthogonal Assay: MALME3 CTG Assay Measured in Cell-Based System Using Plate Reader - 2084-04_Inhibitor_Dose_DryPowder_Activity_Set6.; assay type: functional; settings: MALME-3
[16] = MALME3 melanoma cell viability reduction, dose response, orthogonal assay for MITF inhibitor project, CellTiter-Glo luminescence, dry powder, set 5 (AID 651584); assay type: functional, cell-based; settings: MALME-3
[17] = SK-MEL-5 parental cell viability reduction, dose response, orthogonal assay for MITF inhibitor project, CellTiter-Glo luminescence, dry powder, set 8 (AID 651586); assay type: functional, cell-based
[18] = TRPM1 promoter luciferase reporter signal decrease, dose response, MITF inhibitor project, cell-based, SK-MEL-5, dry powder, set 9 (AID 651588); assay type: functional
[19] = MITF Measured in Cell-Based System Using Plate Reader - 2084-01_Inhibitor_Dose_DryPowder_Activity_Set6.; assay type: functional
[20] = A375 melanoma cell viability loss, dose response, counter-screen for MITF inhibitor project, CellTiter-Glo luminescence, dry powder, set 4 (AID 624364); assay type: functional, cell-based; settings: A-375;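 note: A375 melanoma cells are MITF independent so this is a counter screen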
[21] = MITF Orthogonal Assay: SK-MEL-5 CTG Assay Measured in Cell-Based System Using Plate Reader - 2084-02_Inhibitor_Dose_DryPowder_Activity_Set5.; assay type: functional
[22] = A375 melanoma cell cytotoxicity, dose response, counter-screen for MITF inhibitor project, CellTiter-Glo luminescence, dry powder, set 6 (AID 624488); assay type: functional, cell-based; settings: A-375
[23] = SK-MEL-5 parental line viability, dose response, MITF inhibitor project, cell-based, CellTiter-Glo, dry powder, set 6 (AID 624429); assay type: functional
[24] = MITF Measured in Cell-Based System Using Plate Reader - 2084-01_Inhibitor_Dose_DryPowder_Activity_Set7.; assay type: functional
[25] = A375 melanoma cell viability loss, dose response, counter-screen for MITF modulator project, CellTiter-Glo luminescence, dry powder, set 9 (AID 651591); assay type: functional, cell-based; settings: A-375
[26] = M. tuberculosis growth inhibition, HTS (AID 449762); assay type: functional
[27] = target: Glyceraldehyde-3-phosphate dehydrogenase (Homo sapiens, UniProt P04406)
Bcl-2-related protein A1 [28] = target: T1, Bcl-2-related protein A1 (Mus musculus, UniProt Q07440); assay: Bfl-1 inhibitors, primary screen, biochemical, fluorescence polarization, FITC-Bid, mouse (AID 432)
T1 sequence (Q07440 whole entry): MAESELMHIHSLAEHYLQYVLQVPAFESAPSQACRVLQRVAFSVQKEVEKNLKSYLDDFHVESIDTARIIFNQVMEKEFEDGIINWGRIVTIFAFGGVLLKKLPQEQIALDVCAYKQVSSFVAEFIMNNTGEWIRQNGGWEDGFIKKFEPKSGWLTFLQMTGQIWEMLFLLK

Bcl-2-related protein A1 [29] = target: T1, Bcl-2-related protein A1; assay: Bfl-1 binding inhibitors, SAR follow-up, biochemical, fluorescence polarization (AID 1070)
Bcl-2-related protein A1 [30] = target: T1, Bcl-2-related protein A1; assay: Bfl-1 inhibitors blocking BH3 peptide binding, confirmation, biochemical, TR-FRET, mouse Bfl-1 (AID 621);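 note: TR-FRET binding of GST-Bfl-1 to FITC-labelled Bid peptide via terbium antibody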
[31] = Fluorescence Cell-Based Dose Response to Identify Inhibitors of Thrombin Receptor-Activating Peptide SFLLRN-Mediated P-Selectin Induction on Platelets. [Related pubchem assays: 1663 (Primary HTS), 1889 (retest at dose ), 1891 (counterscreen), 1678 (Project Summary)]; assay type: functional
[32] = target: Luciferin 4-monooxygenase (Photinus pyralis, UniProt P08659); assay: firefly luciferase enzyme inhibitors, dose response, biochemical, luminescence (AID 1891)
[33] = Luminescence Cell-Based Dose Confirmation HTS to Identify Inhibitors of Platelet Dense Granule Release. [Related pubchem assays: 1663 (Primary HTS), 1678 (Summary of Project)]; assay type: functional
Vasopressin V2 receptor = Vasopressin V2 receptor (Homo sapiens, UniProt P30518); assay: Late-stage results from the probe development effort to identify antagonists of arginine vasopressin receptor 1a (AVPR1a): fluorescence-based cell-based dose response AVPR2 inhibition counterscreen assay.; assay type: functional
[34] = Late-stage results from the probe development effort to identify antagonists of arginine vasopressin receptor 1a (AVPR1a): fluorescence-based cell-based dose response AVPR1a inhibition assay.; assay type: functional
[35] = Late-stage results from the probe development effort to identify antagonists of arginine vasopressin receptor 1a (AVPR1a): fluorescence-based cell-based dose response OXTR inhibition counterscreen assay.; assay type: functional
Vasopressin V1b receptor = Vasopressin V1b receptor (Homo sapiens, UniProt P47901); assay: Late-stage results from the probe development effort to identify antagonists of arginine vasopressin receptor 1a (AVPR1a): fluorescence-based cell-based dose response AVPR1b inhibition counterscreen assay.; assay type: functional
Vasopressin V1b receptor, sequence (P47901 whole entry): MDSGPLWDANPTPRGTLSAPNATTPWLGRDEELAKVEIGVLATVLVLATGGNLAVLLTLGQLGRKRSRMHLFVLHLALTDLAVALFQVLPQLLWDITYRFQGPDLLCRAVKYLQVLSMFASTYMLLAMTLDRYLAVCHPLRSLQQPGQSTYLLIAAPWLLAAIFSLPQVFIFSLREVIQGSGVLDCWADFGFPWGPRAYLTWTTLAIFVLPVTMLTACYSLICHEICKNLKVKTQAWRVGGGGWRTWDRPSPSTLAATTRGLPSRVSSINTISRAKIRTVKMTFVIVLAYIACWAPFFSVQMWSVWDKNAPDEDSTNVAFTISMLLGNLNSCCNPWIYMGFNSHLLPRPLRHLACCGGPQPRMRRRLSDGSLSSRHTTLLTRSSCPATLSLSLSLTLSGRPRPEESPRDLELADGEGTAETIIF

Paired box protein Pax-8, sequence (Q06710 whole entry): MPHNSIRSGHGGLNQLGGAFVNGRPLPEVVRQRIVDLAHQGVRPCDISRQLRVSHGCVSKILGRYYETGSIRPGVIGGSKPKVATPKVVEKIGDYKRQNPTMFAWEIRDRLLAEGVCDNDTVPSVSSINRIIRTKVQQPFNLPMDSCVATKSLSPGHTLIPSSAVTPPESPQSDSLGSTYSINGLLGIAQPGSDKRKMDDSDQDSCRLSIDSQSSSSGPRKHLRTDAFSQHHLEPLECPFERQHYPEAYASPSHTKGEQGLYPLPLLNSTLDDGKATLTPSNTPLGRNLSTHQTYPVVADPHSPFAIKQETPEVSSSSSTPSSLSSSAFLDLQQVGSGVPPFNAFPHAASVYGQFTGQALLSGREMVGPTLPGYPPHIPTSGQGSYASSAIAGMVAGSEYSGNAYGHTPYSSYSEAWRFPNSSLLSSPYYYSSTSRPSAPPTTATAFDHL
Luciferin 4-monooxygenase, sequence (P08659 whole entry): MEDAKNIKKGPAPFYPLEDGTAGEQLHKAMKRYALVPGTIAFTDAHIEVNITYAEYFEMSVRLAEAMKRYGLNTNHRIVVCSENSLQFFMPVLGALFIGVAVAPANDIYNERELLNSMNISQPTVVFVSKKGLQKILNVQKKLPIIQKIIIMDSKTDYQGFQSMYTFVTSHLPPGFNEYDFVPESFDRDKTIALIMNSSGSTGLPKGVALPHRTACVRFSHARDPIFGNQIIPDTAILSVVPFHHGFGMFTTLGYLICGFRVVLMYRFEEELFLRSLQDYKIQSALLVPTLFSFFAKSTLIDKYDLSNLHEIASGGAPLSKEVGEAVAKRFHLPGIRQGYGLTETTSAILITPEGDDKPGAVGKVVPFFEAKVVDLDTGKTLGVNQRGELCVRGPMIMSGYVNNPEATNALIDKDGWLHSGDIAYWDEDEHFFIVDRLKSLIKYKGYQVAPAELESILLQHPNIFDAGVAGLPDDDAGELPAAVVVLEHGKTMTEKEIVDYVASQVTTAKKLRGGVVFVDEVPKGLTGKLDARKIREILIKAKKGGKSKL
Glyceraldehyde-3-phosphate dehydrogenase, sequence (P04406 whole entry): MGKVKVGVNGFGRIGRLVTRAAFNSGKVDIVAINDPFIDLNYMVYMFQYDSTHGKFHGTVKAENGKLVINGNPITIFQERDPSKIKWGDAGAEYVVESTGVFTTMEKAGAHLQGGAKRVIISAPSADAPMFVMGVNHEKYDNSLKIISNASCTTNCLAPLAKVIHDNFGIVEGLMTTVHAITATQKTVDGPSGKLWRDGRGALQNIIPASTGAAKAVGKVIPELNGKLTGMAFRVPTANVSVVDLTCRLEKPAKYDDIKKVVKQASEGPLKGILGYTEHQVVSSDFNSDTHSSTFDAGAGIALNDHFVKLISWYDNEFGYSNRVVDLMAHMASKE
E3 ubiquitin-protein ligase Mdm2, sequence (Q00987 whole entry): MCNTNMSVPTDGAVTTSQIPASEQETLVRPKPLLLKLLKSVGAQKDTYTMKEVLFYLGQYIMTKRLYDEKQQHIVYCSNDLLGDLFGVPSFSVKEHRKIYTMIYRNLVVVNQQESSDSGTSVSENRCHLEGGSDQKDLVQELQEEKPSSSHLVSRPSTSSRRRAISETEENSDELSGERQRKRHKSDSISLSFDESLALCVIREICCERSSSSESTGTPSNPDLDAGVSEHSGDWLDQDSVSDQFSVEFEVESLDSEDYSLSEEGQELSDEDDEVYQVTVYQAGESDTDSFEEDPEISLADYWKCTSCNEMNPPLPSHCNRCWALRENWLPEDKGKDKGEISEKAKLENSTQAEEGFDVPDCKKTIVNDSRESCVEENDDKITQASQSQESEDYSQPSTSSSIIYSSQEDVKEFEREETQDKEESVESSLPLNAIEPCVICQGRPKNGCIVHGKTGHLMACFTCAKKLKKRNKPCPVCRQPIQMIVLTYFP
Vasopressin V2 receptor, sequence (P30518 whole entry): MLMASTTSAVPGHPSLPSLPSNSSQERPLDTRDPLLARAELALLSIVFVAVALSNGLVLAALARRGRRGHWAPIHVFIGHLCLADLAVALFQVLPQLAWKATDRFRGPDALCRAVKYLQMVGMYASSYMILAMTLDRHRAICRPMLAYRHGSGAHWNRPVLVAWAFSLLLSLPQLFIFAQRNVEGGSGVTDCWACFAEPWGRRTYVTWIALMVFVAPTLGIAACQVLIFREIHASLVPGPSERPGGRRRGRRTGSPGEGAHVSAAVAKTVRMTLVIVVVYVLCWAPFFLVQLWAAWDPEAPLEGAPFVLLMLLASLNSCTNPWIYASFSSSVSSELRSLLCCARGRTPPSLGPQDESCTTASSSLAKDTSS

Q: For `CC(=O)/C=C/n1c(=S)oc2ccccc21`, which EC50 [1] is on record?
A: 0.01 µM (not active)

Q: And the AC50 (INS1)?
A: 8.12 µM (active)

Q: And the AC50 [2]?
A: 10 µM (active)

Q: And the EC50 [3]?
A: 3.97 µM (inconclusive)

Q: What about the EC50 (BJ) of the same compound?
A: 0.508 µM (inconclusive)

Q: What about the AC50 (Paired box protein Pax-8) of the same compound?
A: 5.95 µM (active)

Q: For `CN(C[C@H]1N[C@@H](CO)[C@@H]1c1ccc(C2=CCCC2)cc1)C(=O)c1ccncc1`, which AC50 [4] is on record?
A: 19.3 µM (active)

Q: What about the AC50 [5] of the same compound?
A: 16.3 µM (active)

Q: What about the AC50 [6] of the same compound?
A: 10.9 µM (active)

Q: And the AC50 [7]?
A: 21.1 µM (active)

Q: And the AC50 [8]?
A: 16.2 µM (active)

Q: What about the AC50 [9] of the same compound?
A: 47.5 µM (active)

Q: What about the AC50 [10] of the same compound?
A: 16.2 µM (active)

Q: What about the AC50 (Paired box protein Pax-8) of the same compound?
A: 6.17 µM (active)

Q: What about the AC50 [11] of the same compound?
A: 17.5 µM (active)

Q: What about the AC50 [12] of the same compound?
A: > 32 µM (inactive)

Q: With `NC1=C(NC(=O)c2ccccc2)C(=O)c2ccccc2C1=O` as the compound, how does the AC50 [13] read?
A: > 70 µM (inactive)

Q: What about the AC50 [14] of the same compound?
A: 59.8 µM (active)

Q: What about the AC50 [15] of the same compound?
A: 14.3 µM (active)

Q: What about the AC50 [16] of the same compound?
A: 14.3 µM (active)

Q: What about the AC50 [17] of the same compound?
A: 10.1 µM (active)

Q: And the AC50 [18]?
A: 18.6 µM (active)

Q: What about the AC50 [19] of the same compound?
A: 4.07 µM (active)

Q: And the AC50 [20]?
A: > 70 µM (inactive)

Q: And the AC50 [21]?
A: 6.7 µM (active)

Q: And the AC50 [22]?
A: 60.3 µM (active)

Q: And the AC50 [23]?
A: 9.56 µM (active)

Q: And the AC50 [24]?
A: 7.02 µM (active)

Q: What about the AC50 [25] of the same compound?
A: > 70 µM (inactive)

Q: For `Nc1ccc2c(c1)oc1ccccc12`, which IC50 [26] is on record?
A: > 100 µM (active)

Q: What does the source list for `COc1ccccc1C(=O)C1Nc2ccccc2-c2nnc(SC)nc2O1` (stereo unspecified)?
A: IC50 [27]: > 100 µM (not active); IC50 (Bcl-2-related protein A1 [28]): 4.79 µM (active); IC50 (Bcl-2-related protein A1 [29]): > 100 µM (not active); IC50 (Bcl-2-related protein A1 [30]): > 100 µM (not active) and 4.6 µM (active)

Q: What does the source list for `COC(=O)c1ccccc1NC(=O)Nc1ccc2c(c1)OCO2`?
A: EC50 [31]: < 100 µM (not active); EC50 [32]: > 112 µM (not active); EC50 [33]: 5.7 µM (active)

Q: With `COc1ccc(N(CC2CC2)C(=O)N2CCN(c3ncc(Cl)cc3Cl)CC2)cc1` as the compound, how does the IC50 (Vasopressin V2 receptor) read?
A: 2.78 µM (active)

Q: And the IC50 [34]?
A: 0.0166 µM (active)

Q: And the IC50 [35]?
A: 0.1 µM (active)

Q: And the IC50 (Vasopressin V1b receptor)?
A: 3.1 µM (active)

From ChEMBL document CHEMBL1201862, “PubChem BioAssay data set” (2004)
